Results from paper PMC12519824, “Fatal outcome of severe serotonin syndrome and acute respiratory distress syndrome after self-poisoning with paroxetine: a case report” (Journal of Medical Case Reports, 2025).
Where two headings read alike, the source gives them in different places.

Tests used:
[1] = N-acetylcysteine treatment after paracetamol overdose (Prescott regimen); format: in vivo, human; settings: 8000 mg paracetamol (160 mg/kg) ingested; e.g. elevated transaminases
Method: (§1) A person with an estimated body weight of 50 kg ingested a total amount of 3150 mg agomelatine (63 mg/kg), 4000 mg paroxetine (80 mg/kg), 8000 mg paracetamol (160 mg/kg), 5000 mg acetylsalicylic acid (100 mg/kg), 1000 mg caffeine (20 mg/kg), and 25,200 mg ibuprofen (504 mg/kg) in suicidal intent (total of 336 pills). […] The patient was reported to be on regular paroxetine therapy. However, the exact dosage and frequency of intake were unknown. […] Owing to reported paracetamol overdose, N-acetylcysteine was administered (Fig. 1) according to the regimen described by Prescott et al.. All other medication—except for paroxetine—was deemed to be no longer clinically relevant by the contacted poison information center, based on the time elapsed since ingestion. […] The patient was then transferred to our tertiary care institution for specialized ARDS treatment. […] Therefore, a symptomatic therapy with olanzapine (10 mg/day) was started. Analgosedation with sufentanil was switched to hydromorphone to prevent further aggregation of serotonin, and corticosteroids were administered in an attempt to enhance paroxetine elimination by CYP2D6 induction. […] Once vv-ECMO was initiated, CytoSorb™ hemoadsorption could easily be added in an attempt to eliminate paroxetine.

[2] = cited from earlier work
[3] = indicated value of the test laboratory; ref test laboratory; cited from earlier work
[4] = cited from earlier work; remark: listed apart in the source
[5] = Clinical course of paroxetine overdose in multidrug self-poisoning (case report); format: in vivo, human
Method: as §1

[6] = Serum paroxetine level monitoring after self-poisoning; format: in vivo, human
From the text: However, the exact dosage and frequency of intake were unknown. […] As no severe life-threatening serotonin syndrome symptoms were present at that point and the patient´s condition kept improving, the decision for supportive treatment was made. […] Once vv-ECMO was initiated, CytoSorb™ hemoadsorption could easily be added in an attempt to eliminate paroxetine.

[7] = during serotonin syndrome attributed to paroxetine overdose

## CC(=O)N[C@@H](CS)C(=O)O [acetylcysteine, N-acetylcysteine]
[1]
  development of paracetamol poisoning after treatment: no clinically relevant paracetamol poisoning

## COc1ccc(C(CN(C)C)C2(O)CCCCC2)cc1 (stereo not shown) [venlafaxine]
[2]
  adverse events after intentional overdose in a case report: tremors, muscle rigidity, and sustained ankle clonus, followed by ARDS

## Fc1ccc([C@@H]2CCNC[C@H]2COc2ccc3c(c2)OCO3)cc1 [paroxetine]
[3]
  critical value of paroxetine level: > 120 ng/mL
  therapeutic range of paroxetine level: 20 to 65 ng/mL
[2]; paroxetine poisoning
  complication of poisoning in a previous case report: severe ARDS
[2]; stopped after paroxetine discontinuation
  adverse event with therapeutic intake in one patient: recurrent ARDS
[4]; at therapeutic doses
  plasma protein binding: 95%
[4]
  therapeutic half-life: 7 to 37 h
  volume of distribution: 17 L/kg
[4]; poisoning with a dose of 1 g paroxetine
  prolonged half-life in poisoning: 220 h
[4]; poisoning with a dose of 2 g paroxetine
  prolonged half-life in poisoning: 190 h
[5]; 4000 mg paroxetine with co-ingested drugs, person
  clinical toxicity after overdose: severe serotonin syndrome complicated by acute respiratory distress syndrome
[5]; 4000 mg paroxetine, despite CytoSorb, corticosteroids, olanzapine 10 mg/day and intensive care
  outcome: the patient died on day 20 postingestion
[5]; 4000 mg paroxetine, persisted until death on day 20
  onset of serotonin syndrome (day after ingestion): 5 days
[5]; [7]
  recurrent fever: up to 39.5 °C
  tachycardia: up to 142 bpm
[5]; during serotonin syndrome attributed to paroxetine overdose, printed 'hypotension up to', catecholamines needed
  hypotension: up to 82/52
[6]; after ingestion of 4000 mg paroxetine
  time with paroxetine levels in the lethal dose range: 20 days
[6]; human, serum, oral, day 8 after ingestion of 4000 mg paroxetine (80 mg/kg), multidrug poisoning, one patient
  concentration at 8 day: 3410 ng/mL
